Here are results for ten molecules from ChEMBL document CHEMBL1201862, “PubChem BioAssay data set” (2004).

Some test systems named below: LOX IMVI; MCF7; UACC-257; SF-539; HL-60; OVCAR-3; MOLT-4; SK-MEL-2; ACHN; HOP-62; NCI-H226; IGROV-1; SK-MEL-28; UACC-62; BT-549; RPMI-8226; HT-29; A498; T47D.
Assay in all cases: DTP human tumour cell line panel, 48 h

The structures appear in SMILES notation.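 Protocol summary: plate cells (96-well), add compound at 5 concentrations, incubate 48 h, interpolate endpoints linearly. Here, GI50 denotes the concentration required for 50% inhibition of growth.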 Calls of active or inactive are those of the source. Rule as the data show it: active = GI50 up to about 1.1 µM and inactive = higher. A value given as a limit tells only on which side of the number the result lay.

The term GI50 denotes the concentration that inhibits growth by half. For the molecule `O=c1oc2ccc3ccccc3c2cc1-c1nc2ccccc2o1`, the GI50 in the assay on LOX IMVI is 16.6 µM (inactive); in the assay on MCF7 it was 1.26 µM (inactive); in the assay on UACC-257 it was > 49.9 µM (inactive); with SF-539 it was 15.8 µM (inactive); in the assay on HL-60 it was 40.6 µM (inactive); with OVCAR-3 it was 15.3 µM (inactive). The GI50 in the assay with MOLT-4 was 35.2 µM (inactive); with SK-MEL-2, 20.6 µM (inactive); in the assay on ACHN, 13.9 µM (inactive); in the assay with HOP-62, 18.6 µM (inactive); in the assay with NCI-H226, 22.5 µM (inactive); with IGROV-1 it was 12.7 µM (inactive). The GI50 was 22.6 µM (inactive) in the assay with SK-MEL-28; 36.1 µM (inactive) in the assay with UACC-62; 31.3 µM (inactive) in the assay with BT-549; > 38.8 µM (inactive) in the assay on RPMI-8226; 20.7 µM (inactive) in the assay with HT-29; 25.9 µM (inactive) in the assay on A498. For the same molecule, in the assay with T47D, the GI50 was 3.17 µM (inactive).
As to `Cc1ccc2cccc3c2c1CC1(C3=O)S(=O)(=O)OCCOS1(=O)=O`, the GI50 in the assay on LOX IMVI, in the assay on MCF7, with UACC-257, in the assay with SF-539, in the assay on HL-60 and in the assay with OVCAR-3 was > 100 µM (inactive) throughout. For the same molecule, the GI50 in the assay with MOLT-4, in the assay with SK-MEL-2, in the assay on ACHN, with HOP-62, in the assay with NCI-H226 and with IGROV-1 was > 100 µM (inactive) each time. In addition, the GI50 with SK-MEL-28, in the assay on UACC-62, with BT-549, with RPMI-8226, in the assay on HT-29 and in the assay on A498 was > 100 µM (inactive) in each case. The GI50 in the assay with T47D is > 100 µM (inactive).
With `c1ccc(/C(=N/Nc2ccccn2)c2cccnn2)cc1`, the GI50 was 2.07 µM (inactive) with LOX IMVI; 3.43 µM (inactive) with MCF7; 3.94 µM (inactive) with UACC-257; 2.74 µM (inactive) with SF-539; 3.61 µM (inactive) with HL-60; 1.92 µM (inactive) in the assay on OVCAR-3. The GI50 with MOLT-4 was 0.632 µM (active); in the assay with SK-MEL-2, 12.7 µM (inactive); in the assay with ACHN it was 0.998 µM (active); with HOP-62, 2.85 µM (inactive); in the assay on NCI-H226, 1.07 µM (active); in the assay on IGROV-1 it was 1.79 µM (inactive). Also, the GI50 in the assay on SK-MEL-28 is > 34.2 µM (inactive); with UACC-62, 3.44 µM (inactive); in the assay with BT-549 it was 13.9 µM (inactive); in the assay with RPMI-8226, 2.17 µM (inactive); in the assay on HT-29 it was 1.16 µM (inactive); in the assay with A498, > 25.3 µM (inactive). In addition, the GI50 in the assay on T47D is 9.16 µM (inactive).
In the case of `NC(=O)CC(N)c1nnn[nH]1` (stereo not given), the GI50 in the assay with LOX IMVI, in the assay with MCF7, with UACC-257, in the assay with SF-539, in the assay on HL-60 and with OVCAR-3 was > 100 µM (inactive) throughout. Further, the GI50 with MOLT-4, in the assay on SK-MEL-2, with ACHN, in the assay on HOP-62, with NCI-H226 and with IGROV-1 was > 100 µM (inactive) each time. Besides, the GI50 in the assay with SK-MEL-28, in the assay on UACC-62, in the assay with BT-549, with RPMI-8226, with HT-29 and in the assay on A498 was > 100 µM (inactive) each time. For the same molecule, in the assay on T47D, the GI50 is > 100 µM (inactive).
On to `O=C(N/N=C\c1cccc2ccccc12)Nc1ccc([N+](=O)[O-])cc1`, for which the GI50 is 21.6 µM (inactive) in the assay on LOX IMVI; 9.51 µM (inactive) with MCF7; 25.1 µM (inactive) in the assay on UACC-257; 8.05 µM (inactive) in the assay with SF-539; > 40.6 µM (inactive) with HL-60; 7.74 µM (inactive) in the assay with OVCAR-3. Further, the GI50 with MOLT-4 is 20.8 µM (inactive); in the assay with SK-MEL-2, 20 µM (inactive); in the assay with ACHN it was 11.6 µM (inactive); with HOP-62 it was 17.9 µM (inactive); with NCI-H226, 23.3 µM (inactive); in the assay with IGROV-1, 18.4 µM (inactive). The GI50 was 27.7 µM (inactive) in the assay with SK-MEL-28; 18.1 µM (inactive) with UACC-62; 20 µM (inactive) with BT-549; > 19.7 µM (inactive) in the assay with RPMI-8226; 16.8 µM (inactive) in the assay on HT-29; 2.66 µM (inactive) in the assay with A498. Besides, the GI50 with T47D is 4.28 µM (inactive).
Consider `CC(C)C1(C)N=C(C(F)(F)F)c2cc(C(=O)C(F)(F)F)c3ccccc3c2N1` (stereo not given), for which the GI50 is 2.45 µM (inactive) in the assay with LOX IMVI; 4.03 µM (inactive) in the assay on MCF7; 6.55 µM (inactive) in the assay with UACC-257; 6.5 µM (inactive) in the assay on SF-539; 4.62 µM (inactive) with HL-60; 3.08 µM (inactive) with OVCAR-3. Also, the GI50 with MOLT-4 was 3.07 µM (inactive); with SK-MEL-2, 2.51 µM (inactive); in the assay with ACHN it was 3.53 µM (inactive); in the assay on HOP-62, 4.9 µM (inactive); in the assay on NCI-H226, 12.9 µM (inactive); with IGROV-1, 1.16 µM (inactive). The GI50 in the assay on SK-MEL-28 was 5.22 µM (inactive); with UACC-62, 4.33 µM (inactive); in the assay with BT-549 it was 3.08 µM (inactive); in the assay with RPMI-8226, 3.53 µM (inactive); in the assay with HT-29, 3.44 µM (inactive); with A498, 14.9 µM (inactive). For the same molecule, the GI50 in the assay with T47D is 3.13 µM (inactive).
On to `CN(CCNC(=O)c1cc(-c2ccccc2)nc2ccccc12)CCNC(=O)c1cc(-c2ccccc2)nc2ccccc12`, for which the GI50 in the assay on LOX IMVI is 3.89 µM (inactive); in the assay with MCF7, 3.87 µM (inactive); in the assay on UACC-257, 3.05 µM (inactive); with SF-539, 7.71 µM (inactive); with HL-60, 4.7 µM (inactive); in the assay with OVCAR-3, 23 µM (inactive). Also, the GI50 is 4.17 µM (inactive) with MOLT-4; 4.41 µM (inactive) with SK-MEL-2; > 47 µM (inactive) in the assay with ACHN; 26.1 µM (inactive) in the assay with HOP-62; 14.6 µM (inactive) in the assay with NCI-H226; 3.6 µM (inactive) with IGROV-1. The GI50 was 2.19 µM (inactive) in the assay with SK-MEL-28; 12.9 µM (inactive) in the assay with UACC-62; > 100 µM (inactive) in the assay with BT-549; 4.99 µM (inactive) with RPMI-8226; 2.14 µM (inactive) in the assay with HT-29; 12.2 µM (inactive) in the assay with A498. The GI50 with T47D was > 30.5 µM (inactive).
Regarding `ClCc1nc2ccccc2[nH]1`, the GI50 in the assay with LOX IMVI is 37.2 µM (inactive); in the assay with MCF7 it was 99.1 µM (inactive); in the assay on UACC-257 it was > 100 µM (inactive); in the assay on SF-539, > 100 µM (inactive); in the assay on HL-60, > 100 µM (inactive); in the assay on OVCAR-3, > 100 µM (inactive). Further, the GI50 in the assay with MOLT-4 was 54 µM (inactive); with SK-MEL-2 it was > 100 µM (inactive); in the assay on ACHN, 85.1 µM (inactive); in the assay on HOP-62, > 100 µM (inactive); in the assay with NCI-H226, > 100 µM (inactive); with IGROV-1, > 100 µM (inactive). In addition, the GI50 in the assay on SK-MEL-28 was > 100 µM (inactive); in the assay with UACC-62 it was > 100 µM (inactive); in the assay on BT-549 it was 42.8 µM (inactive); in the assay on RPMI-8226, > 100 µM (inactive); with HT-29, > 100 µM (inactive); with A498, > 100 µM (inactive). Moreover, the GI50 in the assay with T47D was > 100 µM (inactive).
With `O=C(/C=C1\Nc2ccc([N+](=O)[O-])cc2N\C1=C/C(=O)c1ccc(F)cc1)c1ccc(F)cc1`, the GI50 in the assay on LOX IMVI was > 100 µM (inactive); with MCF7 it was 52.8 µM (inactive); in the assay with UACC-257, > 100 µM (inactive); in the assay with SF-539, 19.6 µM (inactive); with HL-60 it was 20.7 µM (inactive); in the assay on OVCAR-3, 25 µM (inactive). For the same molecule, the GI50 with MOLT-4 was 17.6 µM (inactive); in the assay on SK-MEL-2 it was 17.2 µM (inactive); with ACHN it was 13.9 µM (inactive); with HOP-62, 7.35 µM (inactive); in the assay on NCI-H226 it was 27.1 µM (inactive); in the assay on IGROV-1 it was 40 µM (inactive). The GI50 is > 100 µM (inactive) in the assay on SK-MEL-28; 29.4 µM (inactive) with UACC-62; 31.1 µM (inactive) in the assay with BT-549; 20.9 µM (inactive) in the assay on RPMI-8226; > 100 µM (inactive) with HT-29; 19.6 µM (inactive) with A498. Besides, the GI50 in the assay with T47D was 82.8 µM (inactive).
`CC12CCC(/C(=N/c3cc(C(F)(F)F)cc(C(F)(F)F)c3)C1=O)C2(C)C` (stereo not given): the GI50 in the assay with LOX IMVI is 15.2 µM (inactive); with MCF7 it was 28.4 µM (inactive); with UACC-257, 46.6 µM (inactive); in the assay on SF-539, 22.9 µM (inactive); in the assay with HL-60, 1.04 µM (active); in the assay on OVCAR-3 it was 33.7 µM (inactive). For the same molecule, the GI50 with MOLT-4 was 17.4 µM (inactive); with SK-MEL-2, 18.8 µM (inactive); in the assay on ACHN it was > 100 µM (inactive); in the assay on HOP-62, 39.8 µM (inactive); in the assay with NCI-H226, 86.7 µM (inactive); in the assay with IGROV-1, 25.2 µM (inactive). For the same molecule, the GI50 in the assay on SK-MEL-28 is 25.8 µM (inactive); in the assay on UACC-62, 31.3 µM (inactive); in the assay on BT-549, 32.5 µM (inactive); in the assay on RPMI-8226 it was 17.8 µM (inactive); with HT-29 it was 68.5 µM (inactive); with A498, 22.3 µM (inactive). The GI50 in the assay with T47D was 19.8 µM (inactive).
